Reference: patent US10676518B1, “A4B2 nicotinic acetylcholine receptors with reduced or increased nicotine sensitivity and transgenic mouse model for the same” (University of Puerto Rico, priority 2015, dated 2020)
Marks after values point to notes of the source that are not given here.

Tests used:
Type in all cases: cell-based, Rattus norvegicus
[1] = test system: α4β2 nAChRs expressed in Xenopus laevis oocytes; test: Two-electrode voltage clamp, nicotine-induced currents in oocytes; parameters: key to Nicotine EC50 (μM) / Nicotine Hill Coef. / Nicotine Peak Current (nA): (n/f) non-functional; (n/e) no-expression; key to Nicotine sensitivity mark of the mutation: Mutations highlighted in green (‡) exhibit hypersensitivity to nicotine; those in red (¶) exhibit agonist selectivity evidenced by their remarkable reductions in sensitivity to nicotine; conditions: for Nicotine Hill Coef. / Nicotine Peak Current (nA) / receptor function with nicotine / Nicotine EC50 (μM) / nicotine-induced macroscopic peak current compared with WT: nicotine as agonist; for Nicotine Peak Current (nA) / Nicotine EC50 (μM): mean ± SEM of 6-17 oocytes; for receptor function with nicotine / nicotine-induced macroscopic peak current compared with WT: in words; for Nicotine EC50 (μM): −70 mV; for Nicotine sensitivity mark of the mutation: footnote mark beside the mutation
Method: (§1) Single point mutations were prepared using the Quickchange™ Site-Directed Mutagenesis Kit (Stratagene, La Jolla, Calif.). The template used for the PCR reaction was the pGEMHE vector with Rattus norvegicus cDNA coding for the α4 neuronal nAChR subunit. DNA was purified using a QIAprep spin miniprep kit (Quiagen, Germantown, Md.) and then sequenced to confirm the incorporation of each mutation. A total of 11 residues in the cytoplasmic loop of the α4 subunit were chosen to be mutated: S364, T417, S438, S469, S471, S490, S504, S516, T536, Y576, and S589. Each residue was mutated to alanine (A) and aspartic acid (D).
(§2) Each subunit encoding mRNA was synthesized in vitro from linearized pGEMHE plasmid templates of Rattus norvegicus cDNA coding for α4 and β2 nAChR subunits using the mMessage mMachine RNA transcription kit (Ambion, Austin, Tex.). mRNA mixtures of α4 and β2 subunits were prepared at 2 μg:3 μg ratio, and 32.2 nL of this mixture was microinjected into each oocyte. The mRNA mixture was microinjected, using a displacement injector (Drummond Instruments, Broomhall, Pa.), into stage V and VI oocytes that had been extracted, incubated in collagenase Type 1A (Sigma, St. Louis, Mo.), and defolliculated by manual dissection. The injected oocytes were incubated at 19° C. for 3-4 days in ND-96 medium supplemented with albumin, gentamicin, tetracycline, and theophyline. Electrophysiological experiments were performed after the third or fourth day of mRNA injection.
(§3) Oocytes injected with the mRNA transcripts of α4 and β2 subunits were characterized using a two-electrode voltage clamp. ACh- and nicotine-induced currents were recorded at 20° C., 3-4 days after mRNA injection, with a GeneClamp 500B Amplifier (Axon Instruments, Foster City, Calif.). […] All the reagents used were purchased from Sigma-Aldrich, Co. (St. Louis, Mo.). For dose-response curves, each oocyte was held at a membrane potential of −70 mV. Membrane currents were digitized using the DigiData 1322A interface (Axon Instruments, Foster City, Calif.), filtered at 2 kHz during recording. The Clampex 10.0 software running on a Pentium 4-based computer was used for data acquisition. Data analysis was via Prism 3.0 (Graphpad Software, San Diego, Calif.). Dose-response data for the α4β2 combination were collected using seven ACh doses (0.1, 1, 3, 10, 30, 100, and a seventh concentration ranging from 300 to 1000 μM depending on the mutant) and seven nicotine concentrations (0.1, 1, 3, 10, 30, 100, 300 μM). The data were fitted using a one-component sigmoidal dose-response equation, Y=I/ImaxBottom+(I/ImaxTop−I/ImaxBottom)/(1+10^((Log EC50−X)×HillSlope)) where X is the logarithm of concentration and Y is the response.
Target sequence in this assay (P09483 31-333 limits assumed): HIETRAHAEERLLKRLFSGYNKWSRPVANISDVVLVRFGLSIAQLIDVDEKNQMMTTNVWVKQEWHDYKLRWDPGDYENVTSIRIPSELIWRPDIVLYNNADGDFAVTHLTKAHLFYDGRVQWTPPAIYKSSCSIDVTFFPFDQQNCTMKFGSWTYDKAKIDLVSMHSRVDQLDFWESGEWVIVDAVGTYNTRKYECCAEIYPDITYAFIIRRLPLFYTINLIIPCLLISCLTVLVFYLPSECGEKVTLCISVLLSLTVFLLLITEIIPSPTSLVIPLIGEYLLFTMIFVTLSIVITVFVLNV
Target sequence in this assay (P12390 25-500, further chain): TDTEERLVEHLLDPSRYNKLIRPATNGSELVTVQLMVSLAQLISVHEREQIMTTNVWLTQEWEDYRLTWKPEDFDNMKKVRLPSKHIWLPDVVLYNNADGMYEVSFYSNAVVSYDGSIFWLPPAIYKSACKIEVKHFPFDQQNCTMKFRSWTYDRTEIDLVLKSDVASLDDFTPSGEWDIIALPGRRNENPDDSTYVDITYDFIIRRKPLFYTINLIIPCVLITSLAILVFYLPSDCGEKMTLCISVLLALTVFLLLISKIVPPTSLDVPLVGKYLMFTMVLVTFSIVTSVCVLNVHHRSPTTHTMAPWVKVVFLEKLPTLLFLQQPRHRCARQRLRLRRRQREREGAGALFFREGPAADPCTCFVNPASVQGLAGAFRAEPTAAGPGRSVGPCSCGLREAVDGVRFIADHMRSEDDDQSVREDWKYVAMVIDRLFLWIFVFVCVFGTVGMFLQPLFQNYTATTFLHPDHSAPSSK

[2] = test system: α4β2 nAChRs expressed in Xenopus laevis oocytes; test: Two-electrode voltage clamp, ACh-induced currents in oocytes; parameters: key to ACh EC50 (μM) / ACh Hill Coef. / ACh Peak Current (nA): (n/f) non-functional; (n/e) no-expression; conditions: ACh as agonist; for ACh Peak Current (nA) / ACh EC50 (μM): mean ± SEM of 6-17 oocytes; for ACh-induced macroscopic peak current compared with WT / receptor function with ACh: in words; for ACh EC50 (μM): −70 mV
Method: as §1, §2, §3
Target sequence in this assay (P09483 31-249 limits assumed): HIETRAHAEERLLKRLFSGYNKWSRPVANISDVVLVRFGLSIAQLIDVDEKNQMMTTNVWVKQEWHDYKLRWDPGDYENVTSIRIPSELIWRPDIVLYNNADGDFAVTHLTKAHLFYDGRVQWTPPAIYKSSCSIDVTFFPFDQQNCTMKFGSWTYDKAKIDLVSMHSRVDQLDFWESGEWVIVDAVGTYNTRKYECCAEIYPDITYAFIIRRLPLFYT
Target sequence in this assay (P12390 25-237 limits assumed, further chain): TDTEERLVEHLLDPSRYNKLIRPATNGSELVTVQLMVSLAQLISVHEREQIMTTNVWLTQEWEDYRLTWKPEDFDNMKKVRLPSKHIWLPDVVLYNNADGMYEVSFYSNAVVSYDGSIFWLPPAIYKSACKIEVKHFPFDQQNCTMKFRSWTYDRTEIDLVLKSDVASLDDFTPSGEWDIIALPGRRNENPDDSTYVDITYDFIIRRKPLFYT

[3] = test system: α4β2 nAChRs expressed in Xenopus laevis oocytes; test: Efficacy of agonist A-85380 versus ACh for subunit stoichiometry determination; conditions: A-85380 100 nM vs ACh 300 μM; α4β2 mRNA 2:3 ratio
Method: To determine whether the α4β2 mutations α4S469Aβ2, α4S471Dβ2, α4T536Aβ2 and α4Y576Aβ2 expressed in Xenopus laevis oocytes assemble in the α4(2):β2(3) or the α4(3):β2(2) stoichiometry, we estimated the efficacy of agonist A-85380 when compared to ACh 300 μM. […] The efficacy of A-85380 in WTα4(2):β2(3) and […] was determined by comparing the macroscopic current elicited by A-85380 100 nM and ACh 300 μM in oocytes microinjected α4β2 mRNA in 1:10 and 10:1 ratios, respectively. The efficacy of A-85380 in α4S469Aβ2, α4S471Dβ2, α4T536Aβ2 and α4Y576Aβ2 was determined by comparing the macroscopic current elicited by A-85380 100 nM and ACh 300 μM in oocytes microinjected α4β2 mRNA in 2:3 ratio. The changes in stoichiometry in these four mutants were assessed by comparing the efficacy of A-85380 in each mutant compared to WTα4(2):β2(3) and WTα4(3):β2(2).

| Substance | Nicotine Hill Coef. [1] | Nicotine Peak Current (nA) [1] | Nicotine Peak Current (nA) ([1]; listed as WT) | ACh Hill Coef. [2] | ACh Peak Current (nA) [2] | receptor function with nicotine [1] | Nicotine EC50 (μM) [1] | ACh-induced macroscopic peak current compared with WT [2] | Nicotine sensitivity mark of the mutation [1] | nicotine-induced macroscopic peak current compared with WT [1] | Nicotine Peak Current (nA) ([1]; listed as α4S438D) | efficacy of A-85380 compared with WT injected 2:3 or 1:10 ratio [3] | Nicotine Peak Current (nA) ([1]; listed as α4S469A) | receptor function with ACh [2] | ACh EC50 (μM) [2] |
| --- | --- | --- | --- | --- | --- | --- | --- | --- | --- | --- | --- | --- | --- | --- | --- |
| WT α4β2: wild-type rat α4β2 neuronal nicotinic acetylcholine receptor expressed in Xenopus laevis oocytes [reference compound] | 1.80 | 387 ± 66 nA | 387±66 | 1.00 | 2110 ± 243 nA | – | – | – | – | – | – | – | – | – | – |
| α4S438Aβ2: rat α4β2 nAChR, α4 subunit point mutation S438A, CKII putative phosphorylation site | n/f | n/f | – | 0.49 | 97 ± 29 nA | non-functional | n/f | significant decreases in the macroscopic peak currents | – | – | – | – | – | – | – |
| α4S438Dβ2: rat α4β2 nAChR, α4 subunit point mutation S438D, CKII putative phosphorylation site | 1.29 | 2156 ± 475 nA | – | 0.68 | 1938 ± 367 nA | – | – | no change in the macroscopic peak current | α4S438Dβ2‡ | significant increases in the macroscopic peak currents | 2156±475 | – | – | – | – |
| α4S469Aβ2: rat α4β2 nAChR, α4 subunit point mutation S469A, CKII putative phosphorylation site | 1.84 | 1552 ± 313 nA | – | 0.87 | 2222 ± 413 nA | – | – | no change in the macroscopic peak current | α4S469Aβ2‡ | significant increases in the macroscopic peak currents | – | no significant difference | 1552±313 | – | – |
| α4S469Dβ2: rat α4β2 nAChR, α4 subunit point mutation S469D, CKII putative phosphorylation site | n/f | n/f | – | n/f | n/f | non-functional | n/f | – | – | – | – | – | – | non-functional | n/f |
| α4S471Aβ2: rat α4β2 nAChR, α4 subunit point mutation S471A, PKA putative phosphorylation site | n/f | n/f | – | n/f | n/f | – | n/f | – | – | – | – | – | – | non-functional | n/f |
| α4S471Dβ2: rat α4β2 nAChR, α4 subunit point mutation S471D, PKA putative phosphorylation site | 2.00 | 142 ± 313 nA | – | 1.01 | 1039 ± 139 nA | functional activation by nicotine | – | significant decrease in macroscopic peak current | – | significant decrease in the macroscopic peak current | – | no significant difference | – | – | – |
